Data: BindingDB's records for doi:10.1021/acs.jmedchem.9b01392 (AstraZeneca, 2020)

Target: T1, Tyrosine-protein kinase JAK3 (Homo sapiens, UniProt P52333)
T1 sequence (P52333 whole entry): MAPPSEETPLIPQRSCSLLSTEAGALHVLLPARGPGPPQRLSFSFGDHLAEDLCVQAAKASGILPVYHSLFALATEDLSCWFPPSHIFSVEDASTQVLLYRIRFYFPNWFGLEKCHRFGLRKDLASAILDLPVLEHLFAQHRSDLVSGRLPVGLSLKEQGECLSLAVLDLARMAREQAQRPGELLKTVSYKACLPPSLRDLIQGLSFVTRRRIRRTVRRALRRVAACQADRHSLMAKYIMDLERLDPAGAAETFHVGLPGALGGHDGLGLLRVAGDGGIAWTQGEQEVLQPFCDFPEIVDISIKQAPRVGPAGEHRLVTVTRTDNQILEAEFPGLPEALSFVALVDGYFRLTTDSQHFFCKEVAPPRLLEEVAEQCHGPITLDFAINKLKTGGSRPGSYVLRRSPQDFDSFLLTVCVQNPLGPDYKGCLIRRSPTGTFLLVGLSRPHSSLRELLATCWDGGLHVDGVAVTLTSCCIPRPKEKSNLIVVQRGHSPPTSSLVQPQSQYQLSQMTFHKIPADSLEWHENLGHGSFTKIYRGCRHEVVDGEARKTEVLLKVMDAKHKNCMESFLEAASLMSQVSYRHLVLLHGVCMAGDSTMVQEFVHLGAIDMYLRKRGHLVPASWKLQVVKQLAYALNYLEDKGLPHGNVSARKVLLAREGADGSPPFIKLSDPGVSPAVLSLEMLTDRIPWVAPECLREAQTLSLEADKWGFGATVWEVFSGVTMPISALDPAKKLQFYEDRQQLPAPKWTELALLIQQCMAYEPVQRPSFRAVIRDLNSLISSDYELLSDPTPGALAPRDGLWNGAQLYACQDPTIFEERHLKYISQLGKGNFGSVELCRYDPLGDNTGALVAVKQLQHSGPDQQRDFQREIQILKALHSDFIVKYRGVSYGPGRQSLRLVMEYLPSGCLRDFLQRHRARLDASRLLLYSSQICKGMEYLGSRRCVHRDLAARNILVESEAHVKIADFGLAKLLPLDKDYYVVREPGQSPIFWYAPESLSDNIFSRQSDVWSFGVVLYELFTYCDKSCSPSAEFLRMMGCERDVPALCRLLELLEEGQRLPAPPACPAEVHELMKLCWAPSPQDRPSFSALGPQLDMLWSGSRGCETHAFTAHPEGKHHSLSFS
Test: Inhibition of JAK3 (unknown origin)

For `COc1nn(C)cc1Nc1nccc(-c2c[nH]c3c(NC(=O)[C@@H](C)N4CCN(C)CC4)cccc23)n1` [(2R)-N-(3-{2-[(3-methoxy-1-methyl-1H-pyrazol-4-yl)amino]pyrimidin-4-yl}-1H-indol-7-yl)-2-(4-methylpiperazin-1-yl)propanamide], the IC50 was greater than 30 µM.
